Tests used:
Experiment in all cases: Microbiological challenge testing in BPW broth, graded subculture counts
Assay type in all cases: cell-based
[1] = tested on: Aspergillus niger Wild type; details: A. niger
Method: (§1) The microorganisms in the table below were used in challenge tests. They were either ATCC (American Type Culture Collection) or “wild type” as indicated. Wild type organisms were problematic organisms previously isolated from chemical products.
(§2) All of the microorganisms were grown in Tryptose Soy Broth (TSB), DIFCO™ available from Becton, Dickinson and Company, containing 1% dextrose. Candida albicans and Aspergillus niger, were incubated at 22° C.+/−2° C. for at least 96 hours. All bacteria were incubated at 35° C.+/−2° C. in a humidified incubator for at least 96 hours.
Candida albicans and Aspergillus niger were also grown on Sabouraud Dextrose Agar (SABD) at 22° C. for 7 to 14 days or until full sporulation was achieved.
(§3) The following procedure was followed to determine the amount of each challenge material (inoculum broth) needed to produce a 10^8 CFU/mL challenge, which is equivalent to a final test-sample microbial concentration of 10^5 to 10^6 CFU/mL (CFU=colony forming units).
(§4) Using a sterile pipette, 1 mL of the growth from each TSB culture was transferred into tubes of 9 mL buffered water (pH 7.2 phosphate buffer) and mixed thoroughly. This was repeated to make serial 1:10 dilutions. Then, 0.1 mL of each sample and dilution was inoculated onto agar plates to produce the equivalent of a further 1:10 dilution. (C. albicans and A. niger were inoculated onto SABD and bacteria were inoculated onto Plate Count Agar (PCA), DIFCO™ available from Becton, Dickinson and Company.) (The normal volume plated for most samples was 0.1 mL. Some samples that could be very low in micro-organisms (high dilutions) were plated using 0.5 mL of inoculum, in order to produce reproducible counts.) The samples were distributed on the plates using the spread-plate technique. The spread-plate technique is carried out by spreading the sample over the entire plate surface using a sterile spreading rod while rotating the plate with a rotary auto-plater. After the inoculum was absorbed completely by the agar, each plate was inverted and incubated (fungi at 22° C.+/−2° C. and bacteria at 35° C.+/−2° C.).
(§5) After incubation for at least 48 hours, colonies that had developed on the agar plates were counted (CFU) and recorded with the corresponding dilution. If counting had to be delayed temporarily, plates were refrigerated, preferably no more than 24 hours, until they could be counted. The number of CFU/mL was determined by multiplying the plate count by the dilution factor of the plate counted.
(§6) Turbidity in Nepholemetric Turbidity Units (NTU) was measured for each serial dilution using the HF-Micro 100 Model Turbidimeter. For each microorganism, the plate counts were compared to the turbidity readings.
Aspergillus niger cultures were harvested and spores dislodged from the SABD on which they were grown by rubbing the growth gently with a sterile inoculating loop. The spores were then mixed into the broth culture that had been incubated with a sterile magnetic stir bar to reduce pellicle formation. The spore-culture mixture was filtered repeatedly through sterile, nonabsorbent cotton and harvested repeatedly, adjusting vegetative cells and spores to a level of 1.0×10^8. A hemocytometer was used to verify the final challenge concentration.
(§7) Control substrates (“broth alone”) were prepared for each microorganism separately in triplicate by adding 13.5 mL of Buffered Peptone Water broth (BPW) containing 1% dextrose to each 20-mL glass tube, then adding 1.5 mL challenge material to produce a final concentration at time zero of 10^5 to 10^6 CFU/mL and a total volume of 15 mL.

[2] = tested on: Aeromonas sp. Wild type
Method: as §1, §2, §3, §4, §5, §6, §7
(§8) Test sample substrates were prepared containing each test material listed below at the concentrations shown for challenge testing with each microorganism separately. Sample substrates were prepared in triplicate, except the substrates containing butoxyethanol which were prepared in duplicate. Substrates were prepared by adding BPW containing 1% dextrose to each 20-mL glass tube, then adding the test material in the amount appropriate to achieve the desired weight/volume percent and to achieve a total volume of BPW plus dextrose plus test material of 13.5 mL. Then 1.5 mL challenge material was added to produce a final concentration at time zero of 10^5 to 10^6 CFU/mL and a total test sample substrate volume of 15 mL.

[3] = tested on: Streptococcus mutans ATCC 35668
Method: as §1, §2, §3, §4, §5, §6, §7, §8

[4] = tested on: Staphylococcus aureus ATCC 25923; details: S. aureus
Method: as §1, §2, §3, §4, §5, §6, §7, §8

[5] = tested on: Burkholderia cepacia Wild type; details: B. cepacia
Method: as §1, §2, §3, §4, §5, §6, §7, §8

[6] = tested on: Escherichia coli ATCC 25922; details: E. Coli
Method: as §1, §2, §3, §4, §5, §6, §7, §8

## OCC1CCCCC1CO (stereo not drawn) [1,2-CHDM, 1,2-cyclohexanedimethanol]
[1]; 0.5% (wt/vol), 3 day
  Grade: 4.7
[1]; 0.5% (wt/vol), 13 day
  Grade: 4
[1]; 0.5% (wt/vol), 30 day
  Grade: 4
[1]; 1.25% (wt/vol), 3 day
  Grade: 3.3
[1]; 1.25% (wt/vol), 13 day
  Grade: 3.3
[1]; 1.25% (wt/vol), 30 day
  Grade: 4
[1]; 2.5% (wt/vol), 3 day
  Grade: 2 (Countable (10 to 100 colonies))
[1]; 2.5% (wt/vol), 13 day
  Grade: 0
[1]; 2.5% (wt/vol), 30 day
  Grade: 0
[1]; 5.0% (wt/vol), 3 day
  Grade: 0
[1]; 5.0% (wt/vol), 13 day
  Grade: 0
[1]; 5.0% (wt/vol), 30 day
  Grade: 0
[2]; 0.5% weight/volume
  Aeromonas sp growth grade, 3 day: 5 (More than 10,000 colonies estimated (thus more than 100,000 CFU/mL))
  Aeromonas sp growth grade, 14 day: 4 (1000 to 10,000 colonies countable (thus 10,000 CFU/mL to 100,000 CFU/mL))
  Aeromonas sp growth grade, 30 day: 4 (1000 to 10,000 colonies countable (thus 10,000 CFU/mL to 100,000 CFU/mL))
[2]; 1.25% weight/volume
  Aeromonas sp growth grade, 3 day: 3 (100 to 1000 colonies (thus 1000 to 10,000 CFU/mL))
  Aeromonas sp growth grade, 14 day: 2 (52 to 100 colonies counted (thus 520 to 1000 CFU/mL))
  Aeromonas sp growth grade, 30 day: 1 (0 to 51 colonies counted (thus 10 to 510 CFU/mL based on 0.1-mL sample))
[2]; 2.5% weight/volume
  Aeromonas sp growth grade, 3 day: 0
  Aeromonas sp growth grade, 14 day: 1 (0 to 51 colonies counted (thus 10 to 510 CFU/mL based on 0.1-mL sample))
  Aeromonas sp growth grade, 30 day: 0
[2]; 5.0% weight/volume
  Aeromonas sp growth grade, 3 day: 0
  Aeromonas sp growth grade, 14 day: 0
  Aeromonas sp growth grade, 30 day: 0
[3]; 0.5% weight/volume
  S. mutans growth grade, 3 day: 4 (1000 to 10,000 colonies countable (thus 10,000 CFU/mL to 100,000 CFU/mL))
  S. mutans growth grade, 13 day: 4 (1000 to 10,000 colonies countable (thus 10,000 CFU/mL to 100,000 CFU/mL))
  S. mutans growth grade, 30 day: 4 (1000 to 10,000 colonies countable (thus 10,000 CFU/mL to 100,000 CFU/mL))
[3]; 1.25% weight/volume
  S. mutans growth grade, 3 day: 2 (52 to 100 colonies counted (thus 520 to 1000 CFU/mL))
  S. mutans growth grade, 13 day: 0
  S. mutans growth grade, 30 day: 0
[3]; 2.5% weight/volume
  S. mutans growth grade, 3 day: 1 (0 to 51 colonies counted (thus 10 to 510 CFU/mL based on 0.1-mL sample))
  S. mutans growth grade, 13 day: 0
  S. mutans growth grade, 30 day: 0
[3]; 5.0% weight/volume
  S. mutans growth grade, 3 day: 0
  S. mutans growth grade, 13 day: 0
  S. mutans growth grade, 30 day: 0
[4]; 0.5% (wt/vol), 3 day
  Grade: 4 (1000 to 10,000 colonies countable (thus 10,000 CFU/mL to 100,000 CFU/mL))
[4]; 0.5% (wt/vol), 14 day
  Grade: 4 (1000 to 10,000 colonies countable (thus 10,000 CFU/mL to 100,000 CFU/mL))
[4]; 0.5% (wt/vol), 30 day
  Grade: 4 (1000 to 10,000 colonies countable (thus 10,000 CFU/mL to 100,000 CFU/mL))
[4]; 1.25% (wt/vol), 3 day
  Grade: 3.3
[4]; 1.25% (wt/vol), 14 day
  Grade: 2.7
[4]; 1.25% (wt/vol), 30 day
  Grade: 4 (1000 to 10,000 colonies countable (thus 10,000 CFU/mL to 100,000 CFU/mL))
[4]; 2.5% (wt/vol), 3 day
  Grade: 0
[4]; 2.5% (wt/vol), 14 day
  Grade: 0
[4]; 2.5% (wt/vol), 30 day
  Grade: 0
[4]; 5.0% (wt/vol), 3 day
  Grade: 0
[4]; 5.0% (wt/vol), 14 day
  Grade: 0
[4]; 5.0% (wt/vol), 30 day
  Grade: 0
[5]; 0.5% (wt/vol), 3 day
  Grade: 4 (1000 to 10,000 colonies countable (thus 10,000 CFU/mL to 100,000 CFU/mL))
[5]; 0.5% (wt/vol), 14 day
  Grade: 4 (1000 to 10,000 colonies countable (thus 10,000 CFU/mL to 100,000 CFU/mL))
[5]; 0.5% (wt/vol), 30 day
  Grade: 4 (1000 to 10,000 colonies countable (thus 10,000 CFU/mL to 100,000 CFU/mL))
[5]; 1.25% (wt/vol), 3 day
  Grade: 1 (0 to 51 colonies counted (thus 10 to 510 CFU/mL based on 0.1-mL sample))
[5]; 1.25% (wt/vol), 14 day
  Grade: 0
[5]; 1.25% (wt/vol), 30 day
  Grade: 0
[5]; 2.5% (wt/vol), 3 day
  Grade: 0
[5]; 2.5% (wt/vol), 14 day
  Grade: 0
[5]; 2.5% (wt/vol), 30 day
  Grade: 0
[5]; 5.0% (wt/vol), 3 day
  Grade: 0
[5]; 5.0% (wt/vol), 14 day
  Grade: 0
[5]; 5.0% (wt/vol), 30 day
  Grade: 0
[6]; 0.5% (wt/vol), 3 day
  Grade: 5 (More than 10,000 colonies estimated (thus more than 100,000 CFU/mL))
[6]; 0.5% (wt/vol), 14 day
  Grade: 4 (1000 to 10,000 colonies countable (thus 10,000 CFU/mL to 100,000 CFU/mL))
[6]; 0.5% (wt/vol), 30 day
  Grade: 4 (1000 to 10,000 colonies countable (thus 10,000 CFU/mL to 100,000 CFU/mL))
[6]; 1.25% (wt/vol), 3 day
  Grade: 4 (1000 to 10,000 colonies countable (thus 10,000 CFU/mL to 100,000 CFU/mL))
[6]; 1.25% (wt/vol), 14 day
  Grade: 2 (52 to 100 colonies counted (thus 520 to 1000 CFU/mL))
[6]; 1.25% (wt/vol), 30 day
  Grade: 3 (100 to 1000 colonies (thus 1000 to 10,000 CFU/mL))
[6]; 2.5% (wt/vol), 3 day
  Grade: 2 (52 to 100 colonies counted (thus 520 to 1000 CFU/mL))
[6]; 2.5% (wt/vol), 14 day
  Grade: 0
[6]; 2.5% (wt/vol), 30 day
  Grade: 0
[6]; 5.0% (wt/vol), 3 day
  Grade: 0
[6]; 5.0% (wt/vol), 14 day
  Grade: 0
[6]; 5.0% (wt/vol), 30 day
  Grade: 0
